Assay results published in publication PMC5906549, “Cathelicidin-Derived Antimicrobial Peptides Inhibit Zika Virus Through Direct Inactivation and Interferon Pathway” (Frontiers in Immunology, 2018).
Peptide text beside a SMILES is read from it.

Legend:
ZIKV strain MR766 [1] = test: ZIKV RNA in infected Vero cells, peptide pre-treatment (real-time RT-PCR); type: cell-based, Zika virus; conditions: 2 h before ZIKV MOI 0.5, re-treated at 24 h, 48-h post-infection, RT-PCR normalized to GAPDH, N = 3
Method: Human fetal astrocytes were derived from a single-cell isolation process of fetal brain tissues as previously described ([25], [26]). Briefly, dissociated brain tissue was incubated with 0.25% trypsin for 30 min, followed by neutralization with 10% fetal bovine serum (FBS), and further dissociated by trituration. The single-cell suspension was cultured as adherent cells in DMEM/F12 (Thermo Fisher Scientific, Waltham, MA, USA), supplemented with 10% FBS, penicillin (50 units/mL), and streptomycin (50 µg/mL) (Thermo Fisher Scientific). […] Vero cells (ATCC, CCL-81), an African green monkey kidney cell line, were maintained in Dulbecco’s Modified Eagle Medium (DMEM) with 5% FBS. Experiments with ZIKV were performed exclusively inside a BioSafety Level 2 (laboratory). All procedures utilized in this study were approved by the Institutional Biosafety Committee (IBC 16-05-013BL2) and followed biosafety level II practices as shown in National Institutes of health (NIH) Guideline Appendix G-II-B. ZIKV strain MR766 (Uganda, 1947) was obtained from ZeptoMetrix Corp., Buffalo, NY, USA, and propagated in Vero cells. ZIKV infection of the Vero cells and fetal astrocytes was previously characterized ([27]) and all infections in the current studies were at the MOI of 0.5.
Total mRNA was isolated with TRIzol Reagent (Thermo Fisher Scientific) and RNeasy Mini Kit (QIAGEN Inc., Valencia, CA, USA) following the manufacturer’s recommendations. Two real-time RT-PCR methods were used for the current studies. First, SYBR Green-based RT-PCR assay was used to determine intracellular ZIKV RNA in Vero cells. For this assay, reverse transcription was performed using Verso cDNA synthesis Kit (Thermo Fisher Scientific) and 1 µg of total RNA in a 15-µL final volume. The RT-PCR analyses were performed using 7.5-µL SYBR Green PCR Master Mix (Thermo Fisher Scientific) with 0.5-µL cDNA, 1.5-µL H2O, 5.5-µL oligonucleotide primer pairs at 10 µM. […] GG-3. PCR program: 1, 50°C for 2 min; 2, 95°C for 2 min; 3, 95°C for 15 s; 4, specific annealing temperature for 15 s; 5, 72°C for 1 min. Steps 2–4 were repeated 40 times. All samples were amplified in triplicate for analysis. Relative ZIKV RNA levels were determined and standardized with a GAPDH internal control using comparative ΔΔCT method ([35]). Second, TaqMan-based RT-PCR assay was used to determine intracellular ZIKV RNA and other gene expressions in Figures 3–6 and extracellular ZIKV RNA in Figure 3. The TaqMan assay was performed in a StepOne^TM Real-Time PCR system (Thermo Fisher Scientific). Primers used for TaqMan real-time RT-PCR were all from the Thermo Fisher Scientific, which included ZIKV (forward sequence: 5-[…]-3, reverse sequence: 5- […]-3, and probe sequence: 5′-[…]-3), IFN-α2 (Hs00265051_s1), IFN-β1 (Hs01077958_s1), eukaryotic 18-s rRNA (Hs99999901_s1), β-actin (Hs99999903_m1), and GAPDH (Catalog number: 4310884E). Relative ZIKV mRNA levels were determined and standardized with a GAPDH or 18-s rRNA endogenous control using comparative ΔΔCT method ([35]). […] For ZIKV in supernatants, RNA was extracted from the supernatants through TRIzol™ LS Reagent (Thermo Fisher Scientific, 10296028) following the manufacturer’s manual. […] Quantitative genomic RNA from ZIKV (NR-1838DQ, ATCC) was used as a standard to calculate viral copies.

[2] = Cell viability MTS assay in Vero cells; conditions: African green monkey
Method: Cell viability was examined by the CellTiter 96 ®Aqueous One Solution Cell Proliferation Assay (Promega, Madison, WI, USA). Vero cells and astrocytes were seeded into 96-well tissue culture plates (Fisher Scientific) and treated with fresh growth medium containing different concentrations of each peptide for 2 or 4 days at 37°C. At the experimental end point, MTS [3-(4,5-dimethylthiazol-2-yl)-5-(3-carboxymethoxyphenyl)-2-(4-sulfophenyl)-2H-tetrazolium] was added to the cultures and incubated for 1 h. The absorbance at 490 nm was recorded through BioTek Gen5 data analysis software (Winooski), VT, optical density (OD) values were used as a representation of cell viability.
(A) Vero cells were treated with doses of peptides ranging from 1 to 50 µM. After 24 h, the cultures were washed and treated with same doses of peptides in fresh medium for another 24 h. Cell viability was determined by a colorimetric MTS assay. Results shown are the averages ±SD of experiments performed in triplicate. Data were analyzed by non-linear regression. The EC50 was assessed for each of the antimicrobial peptides. (B) Vero cells were treated with doses of peptides ranging from 0.4 to 10 µM for 2 h then infected with ZIKV at the MOI of 0.5. After 24 h, the cultures were washed and treated with same doses of peptides in fresh medium for another 24 h. ZIKA RNA was detected in total cellular RNA through real-time RT-PCR. Data were normalized to GAPDH and presented as fold change (in log scale) compared with ZIKV group. ** p < 0.01 and *** p < 0.001, as compared with the ZIKV group without the peptide treatment (ANOVA, N = 3).
A, B) Vero cells were treated with 10 µM AMPs for 2 days or 4 days as outlined in the figure. For 4-day treatment, Vero cells were repeatedly treated with 10 µM AMPs at 2-day post-treatment. At the experimental end point, cell viability was determined by a colorimetric MTS assay CellTiter 96® AQueous One Solution Assay (Promega, Madison, WI) based on the manufacture’s instruction. Results were normalized as percentage of cell viability in control astrocytes. CTL, control. * denotes p < 0.05, ** denotes p < 0.01, *** denotes p < 0.001 as compared to the control group without peptide treatment (ANOVA, N = 3).

ZIKV strain MR766 [3] = test: ZIKV RNA in astrocytes with recombinant IFN-α or with inhibition of type-I IFN signaling; type: cell-based, Zika virus; conditions: astrocytes pretreated 2 h with anti-IFN-α neutralizing antibodies (200 neutralizing units/mL) or 1-µM fludarabine, then AMPs 2 h, ZIKV MOI 0.5; RNA at 24 h
Method: Total mRNA was isolated with TRIzol Reagent (Thermo Fisher Scientific) and RNeasy Mini Kit (QIAGEN Inc., Valencia, CA, USA) following the manufacturer’s recommendations. Two real-time RT-PCR methods were used for the current studies. First, SYBR Green-based RT-PCR assay was used to determine intracellular ZIKV RNA in Vero cells. For this assay, reverse transcription was performed using Verso cDNA synthesis Kit (Thermo Fisher Scientific) and 1 µg of total RNA in a 15-µL final volume. The RT-PCR analyses were performed using 7.5-µL SYBR Green PCR Master Mix (Thermo Fisher Scientific) with 0.5-µL cDNA, 1.5-µL H2O, 5.5-µL oligonucleotide primer pairs at 10 µM. […] GG-3. PCR program: 1, 50°C for 2 min; 2, 95°C for 2 min; 3, 95°C for 15 s; 4, specific annealing temperature for 15 s; 5, 72°C for 1 min. Steps 2–4 were repeated 40 times. All samples were amplified in triplicate for analysis. Relative ZIKV RNA levels were determined and standardized with a GAPDH internal control using comparative ΔΔCT method ([35]). […] Relative ZIKV mRNA levels were determined and standardized with a GAPDH or 18-s rRNA endogenous control using comparative ΔΔCT method ([35]). […] Quantitative genomic RNA from ZIKV (NR-1838DQ, ATCC) was used as a standard to calculate viral copies.

## CC[C@@H](C)[C@@H](NC(=O)CN)C(=O)N[C@H](CCCCN)C(=O)N[C@H](CCC(=O)O)C(=O)N[C@H](Cc1ccccc1)C(=O)N[C@H](CCCCN)C(=O)N[C@H](CCCNC(=N)N)C(=O)N[C@@H](C(=O)N[C@@H](C(=O)N[C@H](CCC(N)=O)C(=O)N[C@H](CCCNC(=N)N)C(=O)N[C@@H](C(=O)N[C@H](CCCCN)C(=O)N[C@H](CC(=O)O)C(=O)N[C@H](Cc1ccccc1)C(=O)N[C@H](CC(C)C)C(=O)N[C@H](CCCNC(=N)N)C(=O)N[C@H](CC(N)=O)C(=O)N[C@H](CC(C)C)C(=O)N[C@@H](C(=O)O)C(C)C)[C@H](C)CC)C(C)C)[C@H](C)CC [GI-20D-form]
ZIKV strain MR766 [1]; peptide 0.4 µM
  ZIKV RNA compared with untreated controls: significantly decreased ZIKV RNA
ZIKV strain MR766 [1]; peptide 2 µM
  ZIKV RNA compared with untreated controls: significantly decreased ZIKV RNA
[2]
  EC50 at 48 h: 4 µM

## CC[C@H](C)[C@H](NC(=O)[C@H](CCCCN)NC(=O)[C@H](CCC(=O)O)NC(=O)[C@H](CCCCN)NC(=O)[C@H](CO)NC(=O)[C@H](CCCCN)NC(=O)[C@H](CCCNC(=N)N)NC(=O)[C@H](Cc1ccccc1)NC(=O)[C@H](Cc1ccccc1)NC(=O)[C@H](CC(=O)O)NC(=O)CNC(=O)[C@H](CC(C)C)NC(=O)[C@@H](N)CC(C)C)C(=O)NCC(=O)N[C@@H](CCCCN)C(=O)N[C@@H](CCC(=O)O)C(=O)N[C@@H](Cc1ccccc1)C(=O)N[C@@H](CCCCN)C(=O)N[C@@H](CCCNC(=N)N)C(=O)N[C@H](C(=O)N[C@H](C(=O)N[C@@H](CCC(N)=O)C(=O)N[C@@H](CCCNC(=N)N)C(=O)N[C@H](C(=O)N[C@@H](CCCCN)C(=O)N[C@@H](CC(=O)O)C(=O)N[C@@H](Cc1ccccc1)C(=O)N[C@@H](CC(C)C)C(=O)N[C@@H](CCCNC(=N)N)C(=O)N[C@@H](CC(N)=O)C(=O)N[C@@H](CC(C)C)C(=O)N[C@H](C(=O)N1CCC[C@H]1C(=O)N[C@@H](CCCNC(=N)N)C(=O)N[C@H](C(=O)N[C@@H](CCC(=O)O)C(=O)N[C@@H](CO)C(=O)O)[C@@H](C)O)C(C)C)[C@@H](C)CC)C(C)C)[C@@H](C)CC [LL-37, reference compound]
ZIKV strain MR766 [1]; peptide 0.4 µM
  ZIKV RNA compared with untreated controls: significantly decreased ZIKV RNA
ZIKV strain MR766 [1]; peptide 2 µM
  ZIKV RNA compared with untreated controls: significantly decreased ZIKV RNA

## CC[C@H](C)[C@H](N)C(=O)N[C@@H](CCCCN)C(=O)N[C@@H](Cc1c[nH]c2ccccc12)C(=O)N[C@@H](CCCCN)C(=O)N[C@@H](CCCCN)C(=O)N[C@@H](CC(C)C)C(=O)N[C@@H](CC(C)C)C(=O)N[C@@H](CCCNC(=N)N)C(=O)N[C@@H](C)C(=O)N[C@@H](C)C(=O)N[C@@H](CCCCN)C(=O)N[C@@H](CCCNC(=N)N)C(=O)N[C@H](C(=O)N[C@@H](CC(C)C)C(=O)O)[C@@H](C)CC [DASamP2] (H-IKWKKLLRAAKRIL-OH)
ZIKV strain MR766 [1]; peptide 2 µM
  ZIKV RNA compared with untreated controls: significantly decreased ZIKV RNA
[2]
  EC50 at 48 h: > 50 µM

## CC[C@H](C)[C@H](NC(=O)CN)C(=O)N[C@@H](CCCCN)C(=O)N[C@@H](CCC(=O)O)C(=O)N[C@@H](Cc1ccccc1)C(=O)N[C@@H](CCCCN)C(=O)N[C@@H](CCCNC(=N)N)C(=O)N[C@H](C(=O)N[C@H](C(=O)N[C@@H](CCC(N)=O)C(=O)N[C@@H](CCCNC(=N)N)C(=O)N[C@H](C(=O)N[C@@H](CCCCN)C(=O)N[C@@H](CC(=O)O)C(=O)N[C@@H](Cc1ccccc1)C(=O)N[C@@H](CC(C)C)C(=O)N[C@@H](CCCNC(=N)N)C(=O)N[C@@H](CC(N)=O)C(=O)N[C@@H](CC(C)C)C(=O)N[C@H](C(=O)O)C(C)C)[C@@H](C)CC)C(C)C)[C@@H](C)CC [GI-20]
ZIKV strain MR766 [1]; peptide 0.4 µM
  ZIKV RNA compared with untreated controls: significantly decreased ZIKV RNA
ZIKV strain MR766 [1]; peptide 2 µM
  ZIKV RNA compared with untreated controls: significantly decreased ZIKV RNA
[2]
  EC50 at 48 h: > 50 µM

## Nc1nc(F)nc2c1ncn2[C@@H]1O[C@H](CO)[C@@H](O)[C@@H]1O [fludarabine, Fludarabine]
ZIKV strain MR766 [3]
  Effect on GF-17- and BMAP-18-mediated ZIKV inhibition: dampened but did not completely block
